Columns and labels:
human S1P1 receptor [1] = molecular target: T1, human S1P1 receptor (Homo sapiens (Human), UniProt P21453); test: In vitro functional activity (agonism) on human S1P1 receptors (method B), CHO-K1-human S1P1 cAMP assay; format: cell-based; settings: determined using method B (cAMP, forskolin); for EC50: read-out: S1P1^B pEC50 (converted)
Description: The CHO-K1-Human S1P1-c-AMP assay was performed at Euroscreenfast, Brussels (Euroscreen, Human S1P1 coupling Gi/0, (Edg1) receptor, catalog no: FAST-0197C, December 2009).
Recombinant CHO-K1 cells expressing human S1P1, grown to mid-log Phase in culture media without antibiotics, detached, centrifuged and re-suspended. For agonist testing cells are mixed with compound and Forskolin and incubated at room temperature. Cells are lyses and cAMP concentration are estimated, according to the manufacturer specification, With the HTRF kit from CIS-BIO International (cat n°62AM2PEB).
Agonistic effects of compounds are expressed as a percentage of the activity of the reference compound at its EC100 concentration, EC50 is calculated and results are reported as pEC50.

human S1P5 receptor = human S1P5 receptor (Homo sapiens (Human), UniProt Q9H228); test: In vitro functional activity (agonism) on human S1P5 receptors, CHO-human-S1P5-Aequorin assay; format: cell-based; settings: aequorin luminescence; for EC50: read-out: S1P5 pEC50 (converted)
Chain of human S1P5 receptor (Q9H228 whole entry): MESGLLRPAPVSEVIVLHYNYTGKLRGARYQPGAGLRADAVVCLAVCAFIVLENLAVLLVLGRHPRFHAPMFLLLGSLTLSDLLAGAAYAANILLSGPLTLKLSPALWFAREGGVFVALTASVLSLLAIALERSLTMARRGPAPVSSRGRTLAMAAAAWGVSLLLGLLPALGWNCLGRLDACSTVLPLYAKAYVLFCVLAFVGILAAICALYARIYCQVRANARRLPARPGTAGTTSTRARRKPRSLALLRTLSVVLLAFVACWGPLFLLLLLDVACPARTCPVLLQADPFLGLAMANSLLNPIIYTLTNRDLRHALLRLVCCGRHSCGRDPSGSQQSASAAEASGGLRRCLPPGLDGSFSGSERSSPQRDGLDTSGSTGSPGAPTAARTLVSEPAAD
Description: In Vitro Functional Activity (Agonism) on Human 51P5 Receptors
The CHO-human-S1P5-Aeqorin assay was bought from Euroscreen, Brussels (Euroscreen, Technical dossier, Human Lysophospholid S1P5 (Edg8) receptor, DNA clone and CHO AequoScreen™ recombinant cell-line, catalog n°: ES-593-A, September 2006). Human-S1P5-Aequorin cells express mitochondrial targeted apo-Aequorin. […] This luminescent response is dependent on the agonist concentration. Luminescence is measured using the MicroBeta Jet (Perkin Elmer). Agonistic effects of compounds are expressed as pEC50.

human S1P3 receptor = human S1P3 receptor (Homo sapiens (Human), UniProt Q99500); test: In vitro functional activity (agonism) on human S1P3 receptors, CHO-human-S1P3-Aequorin assay; format: cell-based; settings: aequorin luminescence; for EC50: read-out: S1P3 pEC50 (converted)
Chain of human S1P3 receptor (Q99500 whole entry): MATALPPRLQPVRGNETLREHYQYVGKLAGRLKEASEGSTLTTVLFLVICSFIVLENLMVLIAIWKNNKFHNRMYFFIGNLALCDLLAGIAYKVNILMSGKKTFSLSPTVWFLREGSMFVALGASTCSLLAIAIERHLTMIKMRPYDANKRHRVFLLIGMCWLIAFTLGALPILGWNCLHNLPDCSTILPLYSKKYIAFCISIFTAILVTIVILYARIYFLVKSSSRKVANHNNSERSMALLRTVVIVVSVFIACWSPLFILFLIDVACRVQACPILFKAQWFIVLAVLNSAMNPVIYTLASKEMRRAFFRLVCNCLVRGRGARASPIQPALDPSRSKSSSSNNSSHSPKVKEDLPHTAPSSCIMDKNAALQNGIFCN
Description: In Vitro Functional Activity (Agonism) on Human S1P3 Receptors
The CHO-human-S1P3-Aeqorin assay (CHO/Gα16/AEQ/h-S1P3) was established at Solvay Pharmaceuticals. […] This luminescent response is dependent on the agonist concentration. Luminescence is measured using the MicroBeta Jet (Perkin Elmer). Agonistic effects of compounds are expressed as pEC50.

human S1P1 receptor [2] = molecular target: T1, human S1P1 receptor; settings: agonism, determined using method A (aequorin)
Text: In Vitro Functional Activity (Agonism) on Human S1P1 Receptors (Method A)
The CHO-K1-human-S1P1-Acqorin assay was bought from Euroscreen Fast, Brussels (Euroscreen, Technical dossier, Human S1P1 (Edg1) receptor, DNA clone and CHO-K1 AequoScreen™ recombinant cell-line, catalog n°: FAST-0197 L, February 2010). Human-S1P1-Aequorin cells express mitochondrial targeted apo-Aequorin. Cells have to be loaded with coelanterazine, in order to reconstitute active Aequorin. After binding of agonists to the human S1P1 receptor the intracellular calcium concentration increases and binding of calcium to the apo-Aequorin/coelenterazine complex leads to an oxidation reaction of coelenterazine, which results in the production of apo-Aequorin, coelenteramide, CO2 and light ([…]max 469 nm). This luminescent response is dependent on the agonist concentration. Luminescence is measured using the MicroBeta Jet (Perkin Elmer). Agonistic effects of compounds are expressed as pEC50. Compounds were tested at a 10 points half log concentration range, and 2 independent experiments were performed in single point's measurements.

T1 sequence (P21453 whole entry): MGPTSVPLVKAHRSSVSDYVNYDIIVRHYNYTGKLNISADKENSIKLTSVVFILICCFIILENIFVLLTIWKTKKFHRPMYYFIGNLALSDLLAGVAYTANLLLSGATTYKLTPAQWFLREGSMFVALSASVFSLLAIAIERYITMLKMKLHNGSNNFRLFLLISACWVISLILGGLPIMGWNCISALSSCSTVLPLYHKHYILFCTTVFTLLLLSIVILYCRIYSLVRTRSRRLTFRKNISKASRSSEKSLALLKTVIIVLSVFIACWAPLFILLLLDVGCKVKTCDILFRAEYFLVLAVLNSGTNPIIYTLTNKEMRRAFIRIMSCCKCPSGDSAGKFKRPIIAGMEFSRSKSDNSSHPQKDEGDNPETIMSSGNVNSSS

Row | SMILES | EC50 (human S1P1 receptor [1]) [nM] | EC50 (human S1P5 receptor) [nM] | EC50 (human S1P3 receptor) [nM] | S1P1^B pEC50 (human S1P1 receptor [1]) | S1P5 pEC50 (human S1P5 receptor) | S1P3 pEC50 (human S1P3 receptor) | S1P1^A pEC50 (human S1P1 receptor [2])
1 | O=C(O)CCN1CCc2oc(-c3ccc(OCc4ccccc4F)cc3)cc2C1 [Compound 33, 3-{2-[4-(2-Fluoro-benzyloxy)-phenyl]-6,7-dihydro-4H-furo[3,2-c]pyridine-5-yl}-propionic acid] | 100 | 15.8 | 3160 |  |  |  | 
2 | O=C(O)CCCN1CCc2oc(-c3ccc(OCc4ccccc4F)cc3)cc2C1 [Compound 35, 4-{2-[4-(2-Fluoro-benzyloxy)-phenyl]-6,7-dihydro-4H-furo[3,2-c]pyridine-5-yl}-butyric acid] | 251 | 5.01 | 5010 |  |  |  | 
3 | O=C(O)CCN1CCc2oc(-c3ccc(OCc4ccccc4)cc3)nc2C1 [Compound 47] |  |  |  | <5.5 | 8.0 | <5 | 
4 | O=C(O)CCCN1CCc2oc(-c3ccc(OCc4ccccc4)cc3)nc2C1 [Compound 53, 4-{2-[4-Benzyloxy-phenyl]-6,7-dihydro-H-oxazolo[4,5-c]pyridine-5-yl}-butyric acid] |  |  |  |  | 7.9 | <5 | <4.5
5 | O=C(O)CCCN1CCc2oc(-c3ccc(OCc4cccc(F)c4F)cc3)nc2C1 [Compound 57] |  |  |  | <5.5 | 8.0 | <5 | 
6 | O=C(O)CCCN1CCc2oc(-c3ccc(OCc4ccccc4F)cc3F)cc2C1 [Compound 73, 4-{2-[4-(2-Fluoro-benzyloxy)-2-fluoro-phenyl]-6,7-dihydro-4H-furo[3,2-c]-pyri-dine-5-yl}-butyric acid] |  |  |  | 8.0 | 8.2 | 6.3 | 
7 | CC(CC(=O)O)N1CCc2oc(-c3ccc(OCc4ccccc4)cc3)cc2C1 (stereo not drawn) [Compound 76, 3-{2-[4-Benzyloxy-phenyl]-6,7-dihydro-4H-furo[3,2-c]pyridine-5-yl}-butyric acid] | 251 | 7.94 | > 10000 |  |  |  | 
8 | CC(CN1CCc2oc(-c3ccc(OCc4ccc(Cl)cc4)cc3)cc2C1)C(=O)O (stereo not drawn) [Compound 77, 3-{2-[4-(4-Chloro-benzyloxy)-phenyl]-6,7-dihydro-4H-furo[3,2-c]pyridine-5-yl}-2-methyl-propionic acid] | 31.6 | 3.98 | 794 |  |  |  | 
9 | O=C(O)CCCN1CCc2oc(-c3ccc(OCc4ccc(C(F)(F)F)cc4)cc3F)nc2C1 [Compound 85, 4-{2-[4-(4-Trifluoromethyl-benzyloxy)-2-fluoro-phenyl]-6,7-dihydro-H-oxazolo[4,5-c]pyridine-5-yl}-butyric acid] |  |  |  | <5.5 | 8.6 | 6.3 | 
10 | Cc1cc(OCc2ccccc2F)ccc1-c1nc2c(o1)CCN(CCCC(=O)O)C2 [Compound 89, 4-{2-[4-(2-Fluoro-benzyloxy)-2-methyl-phenyl]-6,7-dihydro-H-oxazolo[4,5-c]pyridine-5-yl}-butyric acid] |  |  |  | 5.9 | 8.2 | <5.0 | 
11 | CC(CN1CCc2oc(-c3ccc(OCc4ccccc4)cc3)nc2C1)C(=O)O (stereo not drawn) [Compound 146, 3-[2-(4-Benzyloxy-phenyl)-6,7-dihydro-H-oxazolo[4,5-c]pyridine-5-yl]-2-methyl-propionic acid] |  |  |  | <5.5 | 7.8 | <5.0 | 
12 | CC(CN1CCc2oc(-c3ccc(OCc4ccc(C(F)(F)F)cc4)cc3)nc2C1)C(=O)O (stereo not drawn) [Compound 156, 3-{2-[4-(4-Trifluoromethyl-benzyloxy)-phenyl]-6,7-dihydro-H-oxazolo[4,5-c]pyridine-5-yl}-2-methyl-propionic acid] |  |  |  | 6.2 | 8.4 | 5.5 | 
13 | CC(CN1CCc2oc(-c3ccc(OCc4ccc(Cl)cc4)cc3)nc2C1)C(=O)O (stereo not drawn) [Compound 157, 3-{2-[4-(4-Chloro-benzyloxy)-phenyl]-6,7-dihydro-H-oxazolo[4,5-c]pyridine-5-yl}-2-methyl-propionic acid] |  |  |  | 6.2 | 8.1 | 5.3 | 
14 | CC(CC(=O)O)N1CCc2oc(-c3ccc(OCc4cccc(F)c4F)cc3)nc2C1 (stereo not drawn) [Compound 175] |  |  |  | <5.5 | 8.3 | 5.8 | 
15 | O=C(O)CCCN1CCc2oc(-c3ccc(OCc4ccc(Cl)cc4)c(F)c3)nc2C1 [Compound 211, 4-{2-[4-(4-Chloro-benzyloxy)-3-fluoro-phenyl]-6,7-dihydro-H-oxazolo[4,5-c]pyridine-5-yl}-butyric acid] |  |  |  | 6.1 | 8.3 | <5.0 | 
16 | O=C(O)CCCN1CCc2oc(-c3ccc(OCc4ccc(Cl)c(Cl)c4)cc3F)nc2C1 [Compound 227, 4-{2-[4-(3,4-Dichloro-benzyloxy)-2-fluoro-phenyl]-6,7-dihydro-H-oxazolo[4,5-c]pyridine-5-yl}-butyric acid] |  |  |  | 6.0 | 8.5 | <6.0 | 
17 | CC(CN1CCc2oc(-c3ccc(OCc4ccc(C(F)(F)F)cc4)cc3F)nc2C1)C(=O)O (stereo not drawn) [Compound 271, 3-{2-[4-(4-Trifluoromethyl-benzyloxy)-2-fluoro-phenyl]-6,7-dihydro-H-oxazolo[4,5-c]pyridine-5-yl}-2-methyl-propionic acid] |  |  |  | 6.2 | 8.0 | 5.4 | 
18 | O=C(O)C1CC(N2CCc3oc(-c4ccc(OCc5ccc(F)c(F)c5)cc4)nc3C2)C1 (stereo not drawn) [Compound 277, 3-{2-[4-(3,4-Difluorobenzyloxy)-phenyl]-6,7-dihydro-H-oxazolo[4,5-c]pyridine-5-yl}-cyclobutane carboxylic acid] |  |  |  |  | 8.5 | <5.0 | 5.2
19 | O=C(O)C1CC(N2CCc3oc(-c4ccc(OCc5ccc(F)c(F)c5)cc4)nc3C2)C1 (stereo not drawn) [Compound 278, 3-{2-[4-(3,4-Difluorobenzyloxy)-phenyl]-6,7-dihydro-H-oxazolo[4,5-c]pyridine-5-yl}-cyclobutane carboxylic acid] |  |  |  |  | 7.4 | <5 | <5
20 | O=C(O)CCCN1CCc2oc(-c3ccc(OCc4ccccc4F)c(Cl)c3)nc2C1 [Compound 283, 4-{2-[4-(2-Fluoro-benzyloxy)-3-chloro-phenyl]-6,7-dihydro-H-oxazolo[4,5-c]pyridine-5-yl}-butyric acid] |  |  |  |  | 7.7 | <5 | <4.5
21 | O=C(O)C1CC(N2CCc3oc(-c4ccc(OCc5ccc(OC(F)(F)F)cc5)cc4)nc3C2)C1 (stereo not drawn) [Compound 306, 3-{2-[4-(4-Trifluoromethoxybenzyloxy)-phenyl]-6,7-dihydro-H-oxazolo[4,5-c]pyridine-5-yl}-cyclobutane carboxylic acid] |  |  |  |  | 8.1 | <5.0 | <5
22 | O=C(O)C1CC(N2CCc3oc(-c4ccc(OCc5ccc(OC(F)(F)F)cc5)cc4)nc3C2)C1 (stereo not drawn) [Compound 307, 3-{2-[4-(4-Trifluoromethoxybenzyloxy)-phenyl]-6,7-dihydro-H-oxazolo[4,5-c]pyridine-5-yl}-cyclobutane carboxylic acid] |  |  |  |  | 7.3 | <5.0 | <5

From patent publication US9670220B2, “Fused heterocyclic derivatives as S1P modulators” (Abbvie B.V., priority 2010, dated 2017)
